Patent US20130224223A1, “Compositions and Methods for Treating Neurological Disorders” (GEORGIA REGENTS UNIVERSITY, priority 2007, published 2013)

B1: BDNF: BDNF, a gift from Regeneron; used as a control (protein, UniProt P23560 19-247, looked up)
Neurotrophic factor BDNF …: APMKEANIRGQGGLAYPGVRTHGTLESVNGPKAGSRGLTSLADTFEHVIEELLDEDQKVRPNEENNKDADLYTSRVMLSSQVPLEPPLLFLLEEYKNYLDAANMSMRVRRHSDPARRGELSVCDSISEWVTAADKKTAVDMSGGTVTVLEKVPVSKGQLKQYFYETKCNPMGYTKEGCRGIDKRHWNSQCRTTQSYVRALTMDSKKRIGWRFIRIDTSCVCTLTIKRGR

How the values were obtained:
[1] = system: prefrontal cortical slices; experiment: eIPSC recording in prefrontal cortical slices; type: cell-based, mice; settings: for evoked IPSCs (eIPSCs): substance alone, no other exogenous agent, AG1478/AG879 5 mM [sic]
Protocol: Transverse prefrontal cortical slices (0.3 mm) were prepared from P28-P36 mice using a Vibroslice (Leica VT 10005) in the ice-cold solution, which contained 2.5 mM KCl, 1.25 mM NaH2PO4, 10 mM MgSO4, 0.5 mMCaCl2, 26 mM NaHCO3, 10 mM glucose, and 230 mM sucrose. Slices were allowed to recover for at least 2 hr in ACSF (1 hr at 34° C. followed by 1 hr at 22° C.) in a solution containing 126 mM NaCl, 2.5 mM KCl, 1.25 mM NaH2PO4, 2 mM MgSO4, 2 mM CaCl2, 26 mM NaHCO3, and 10 mM glucose. Slices were placed in the recording chamber and superfused (1.5 ml/min) with ACSF at 34° C. All solutions were saturated with 95% O2/5% CO2. Neurons were visualized with an IR-sensitive CCD camera with a 403 water-immersion lens (Zeiss, Axioskop2 Fsplus) and recorded using whole-cell voltage-clamp techniques (MultiClamp 7008 Amplifier, Digidata 1320A analog-to-digital converter) and pClamp 9.2 software (Axon Instruments). Glass pipettes were filled with the solution containing 125 mM Cs-gluconate, 10 mM CsCl, 1 mM MgCl2, 10 mM HEPES, 1 mM EGTA, 0.1 mM CaCl2, 10 mM sodium phosphocreatine, 4 mM Mg-ATP, 0.3 mM GTP, 0.2 mM leupeptin, and 5 mM lidocaine N-ethylchloride (QX314) (pH 7.2, with the osmolarity adjusted to 280 mOsm with sucrose). The resistance of pipettes was 2-3 MΩ For mIPSC recording, QX314 was omitted in the pipette filling solution, whereas […] was included in the superfusing solution. eIPSCs were generated with a two-concentric bipolar stimulating electrode ([…] pole separation; FHC, ME) positioned about […] from the neuron under recording. Single or paired pulses of 0.2 ms were delivered at 0.1 Hz and synchronized using a Mater-8 stimulator (A.M.P.I). The holding potential for both mIPSCs and eIPSCs was −65 mV. All experiments were done at 34° C. in the presence of 6-cyano-7-nitroquinoxaline-2,3-dione (CNQX, […]) and AP-5 ([…]) to block AMPA/NMDA receptors. Data were collected when series resistance fluctuated within 15% of initial values (8-15 MU), they were filtered at 2 kHz, and they were sampled at 10 kHz.

[2] = system: cortical slices; experiment: [3H]GABA release from prefrontal cortical slices; type: cell-based, mice; settings: 20 mM KCl; for depolarization-evoked [3H]GABA release: substance alone, no other exogenous agent, AG1478/AG879 5 mM [sic]
Protocol: FIG. 2A is a line graph of [^3H]GABA release fraction/total fraction versus time (mins). Cortical slices were preloaded with [^3H]GABA for 30 min in the presence of b-alanine (1 mM), an inhibitor of [^3H]GABA uptake by glial cells, aminooxyacetic acid (0.1 mM), an inhibitor of GABA degradation, and nipecotic acid (1 mM), an inhibitor of the GABA transporter in neurons. Basal and depolarization (20 mM KCl)-evoked release of [^3H]GABA were monitored sequentially. Controls (open circles) and NRG1 (closed circles). FIG. 2B is a line graph of percent [^3H]GABA release versus NRG1 concentration (nM). Basal (open circles) K+ evoked (closed circles). […] FIG. 2D is a line graph of cumulative counts versus mIPSC amplitude (pA). Controls (open circles) and NRG1 (closed circles). FIG. 2E is a line graph of cumulative counts versus mIPSC interevent interval (ms). Controls (open circles) and NRG1 (closed circles). FIG. 2F is a bar graph of mIPSC (percent) in control and NRG1 treated pyramidal neurons in prefrontal cortical slices (n=12). Amplitude (clear) and Frequencies (hatched). FIG. 2G is a bar graph of percent eIPSC amplitude in prefrontal cortical slices treated with NRG1 versus control or washout. n=12, *p<0.01. Representative eIPSCs of control, NRG1-treated, or NRG1-treated/washed slices are shown on top. FIG. 2H is a line graph of percent eIPSC amplitude versus NRG1 (nM). n=6, *p<0.05, **p<0.01. FIG. 2I is a bar graph of K^+ evoked [^3H]GABA release (percent) (left axis, clear rectangles) and eIPSC amplitude (percent) (right axis, hatched rectangles) in prefrontal cortical slices treated with NRG1, denature NRG1, or BDNF. n=8 for [^3H]GABA release; for eIPSCs, n=6 for control, NRG1, and denatured NRG1, and n=4 for BDNF. *p<0.05, #p<0.05; **p<0.05, ##<0.01.
NRG1 may regulate GABAergic neurotransmission. To test this hypothesis, the effects of NRG1 on GABA release in cortical slices were determined by both biochemical and electrophysiological approaches. Basal [^3H]GABA release was low, at a rate of 3.75±0.35% (n=8) of total radioactivity per 10 min (FIG. 2A). Treatment of slices with 20 mM KCl, a condition known to depolarize neurons, increased [^3H]GABA release by 2.5-3.5 folds within 10 min (FIG. 2A). NRG1 had no effect on basal [^3H]GABA release; by contrast, it increased depolarization-evoked GABA release in a dose-dependent manner (FIG. 2B). […] Furthermore, the NRG regulation remained unchanged in the presence of antagonists of metabotropic glutamate receptors, cholinergic receptors, serotonin receptors, adrenergic receptors and/or dopamine receptors. As a control, BDNF decreased depolarization-evoked GABA release and eIPSCs in cortical slices, in agreement with earlier studies (Canas, et al., Brain Res, 1016:72-78 (2004); Frerking, et al., J Neurophysiol, 80:3383-3386 (1998)).

[3] = system: PV-Cre;ErbB4−/− and PV-Cre;ErbB4+/+ mice; experiment: pre-pulse inhibition (PPI) test; type: in vivo; settings: 3 mg/kg
From the text: FIG. 16A is a bar graph showing the baseline startle response (startle amplitude) for PV-Cre;ErbB4+/+ (white bar, n=7) and PV-Cre;ErbB4−/− (hatched bar, n=6) mice under no stimulus, 70 dB (−) and startle stimulus, 120 dB (+), respectively; P>0.05). FIG. 16B is bar graph showing pre-pulse inhibition (%) for PV-Cre;ErbB4+/+ (white bar, n=7) and PV-Cre;ErbB4−/− (hatched bar, n=6) mice at three different levels of pre-pulse (75 dB, 80 dB, 85 dB), P=0.004. PPI=100−100%×(PPx/P120), in which PPx was the amplitude of the startle response after each pre-pulse and P120 was basal startle amplitude. FIG. 16C is a bar graph showing pre-pulse inhibition (%) for PV-Cre;ErbB4+/+ and PV-Cre;ErbB4−/− mice at three different levels of pre-pulse (75 dB, white bars) (80 dB, hatched bars), (85 dB, stippled bars), treated with vehicle or 3 mg/kg diazepam. Repeated measures, * P<0.05, # P=0.573. For vehicle treatment, n=10 and 12 for PV-Cre;ErbB4−/− mice and PV-Cre;ErbB4+/+ littermates, respectively; for diazepam treatment, n=9 and 11 for PV-Cre; ErbB4−/− and PV-Cre;ErbB4+/+, respectively. […]

| Molecule | evoked IPSCs (eIPSCs) [1] | NRG1 potentiation of eIPSCs ([1]; substance given with exogenous NRG1 (5 nM)) | depolarization-evoked [3H]GABA release [2] | NRG1-enhanced evoked GABA release ([2]; substance given with exogenous NRG1) | PPI in PV-Cre;ErbB4−/− mice ([3]; acute administration, mutant mice) | PPI in control mice ([3]; after 30-min treatment, PV-Cre;ErbB4+/+ littermates) |
| --- | --- | --- | --- | --- | --- | --- |
| CC(C)(C)c1cc(/C=C(\C#N)C(N)=S)cc(C(C)(C)C)c1O [AG879] | no detectable effect | no detectable effect | no detectable effect | no detectable effect |  |  |
| CN1C(=O)CN=C(c2ccccc2)c2cc(Cl)ccc21 [diazepam] |  |  |  |  | significantly enhanced | no effect |
| B1 | decreased |  | decreased |  |  |  |
